In patent US7767854B2, “N-substituted phenylacetamide derivative and pharmaceutical composition containing the same” (Dainippon Sumitomo Pharma Co., Ltd., priority 2005, dated 2010) one finds change in vivo data, which are given here for 51 compounds.

One experiment relates to male Std: Wistar rats. The experiment in a line: Pain test by plantar thermal stimuli (plantar test). The experiment is classed as in vivo. The following applies: Rattus norvegicus, 4 h, 50 μl of 0.03% (W/V) solution i.pl. into right hind-paw; 4 hours after administration; cut-off 25 seconds; read-out: % MPE (percent maximum possible effect, withdrawal latency). Here is the method: Experiment 1: Pain Test by Plantar Thermal Stimuli (Plantar Test)
In the present experiment, the analgesic effect of the compounds of the invention was evaluated by the measurements of withdrawal latency to noxious thermal stimuli, according to the methods of Hargreaves, et al., [Pain, 32, 77-88 (1988)] and Field, et al., [J. Pharmacol. Exp. Ther., 282, 1242-1246 (1997)].
In detail, the experiment was carried out using male Std: Wistar rats (4 rats/group; body weight, 170-220 g) and a plantar test device (Model 7370, Ugo Basile) with infrared beam as a heat source. The rat was put into an experimental cage that is an acrylic box whose bottom is made of glass and was habituated therein. Then, the infrared beam was radiated to the plantar surface of right hind-paw thereof through the floor glass, and the withdrawal latency was measured every 5 minutes, 3 times. The intension of the infrared beam was adjusted so that the pre-drug administration latency was about 10 seconds. The cut-off time was set at 25 seconds in order to prevent a paw burn. The average of the latencies was calculated, and then it was defined as the value of the pre-drug administration latency of the test compound.
Next day, 50 μl of each solution of the test compounds [the compounds of the invention, the compounds of the comparative Examples and capsaicin (Sigma, U.S.A.)] or 50 μl of vehicle solvent (reference) was given to a right hind-paw of the rat by intraplantar injection (i. pl.) using a micro-syringe. The test compound was dissolved in a saline solution containing 10% Tween 80 (Sigma, U.S.A) and 10% ethanol to give a 0.03% (W/V) solution. The saline solution containing 10% Tween 80 and 10% ethanol was used as reference. Four hours after i.pl. administration of each the test compound or the reference to the rats, the experiment mentioned above was carried out, and then the post-drug administration latency was measured. The analgesic effects thereof were calculated with the following formula, which was known as a percent maximum possible effect (% MPE). % MPE=[(the value of post-drug latency−the value of pre-drug latency)/(25*−the value of pre-drug latency)]×100 *: cut-off time
As for `COc1cc(CC(=O)NC2CCC(C)CC2)ccc1O` (stereo not drawn) [Comparative Example 1, 2-(4-hydroxy-3-methoxyphenyl)-N-(4-methyl-cyclohexyl)acetamide, reference compound], the change in vivo at 300 µg/mL stood at 23.3%.

Turning to `COc1cc(CC(=O)NC2CCCCC2)ccc1O` [Comparative Example 2, N-cyclohexyl-2-(4-hydroxy-3-methoxyphenyl)-acetamide, reference compound], the change in vivo at 300 µg/mL is 30.6%.

As to `CCCCCC1CCC(NC(=O)Cc2ccc(O)c(OC)c2)CC1` (stereo not drawn) [Example 3, 2-(4-hydroxy-3-methoxyphenyl)-N-(4-pentyl-cyclohexyl)acetamide], the change in vivo at 300 µg/mL came to 89.9%.

For the compound `CCC(C)(C)C1CCC(NC(=O)Cc2ccc(O)c(OC)c2)CC1` (stereo not drawn) [Example 4], the change in vivo at 300 µg/mL was 56.6%.

Take `COc1cc(CC(=O)NC2CCC(C3CCCCC3)CC2)ccc1O` (stereo not drawn) [Example 5]: the change in vivo at 300 µg/mL amounted to 59.2%.

Regarding `COc1cc(CC(=O)NC2CCC(c3ccccc3)CC2)ccc1O` (stereo not drawn) [Example 6], the change in vivo at 300 µg/mL came out at 82.6%.

For the compound `CCCC[C@H]1CC[C@@H](NC(=O)Cc2ccc(O)c(OC)c2)CC1` [Example 7], the change in vivo at 300 µg/mL is 78.6%.

Take `CCCC1(CCC)CCC(NC(=O)Cc2ccc(O)c(OC)c2)CC1` [Example 9, N-(4,4-dipropylcyclohexyl)-2-(4-hydroxy-3-methoxyphenyl)acetamide]: the change in vivo at 300 µg/mL was found to be 64.7%.

In the case of `COc1cc(CC(=O)N[C@H]2CC[C@H](/C=C\C(C)C)CC2)ccc1O` [Example 14, 2-(4-hydroxy-3-methoxyphenyl)-N-{trans-4-[(Z)-3-methyl-1-butenyl]cyclohexyl}acetamide], the change in vivo at 300 µg/mL came to 100%.

With `COc1cc(CC(=O)N[C@H]2CC[C@H](/C=C\CC(C)C)CC2)ccc1O` [Example 15], the change in vivo at 300 µg/mL is 94.4%.

In the case of `CCC/C=C\[C@H]1CC[C@H](NC(=O)Cc2ccc(O)c(OC)c2)CC1` [Example 17], the change in vivo at 300 µg/mL came to 74.9%.

As to `COc1cc(CC(=O)N[C@H]2CC[C@H](/C=C\C3CC3)CC2)ccc1O` [Example 18], the change in vivo at 300 µg/mL was found to be 80.5%.

Regarding `C=C/C=C/[C@H]1CC[C@H](NC(=O)Cc2ccc(O)c(OC)c2)CC1` [Example 19], the change in vivo at 300 µg/mL is 35.9%.

With `CCOC(=O)/C=C/[C@H]1CC[C@H](NC(=O)Cc2ccc(O)c(OC)c2)CC1` [Example 20], the change in vivo at 300 µg/mL was found to be 53.8%.

For `COc1cc(CC(=O)N[C@H]2CC[C@H](/C=C/C(C)=O)CC2)ccc1O` [Example 21], the change in vivo at 300 µg/mL was 50.3%.

Consider `COc1cc(CC(=O)N[C@H]2CC[C@H](/C=C\CC(F)(F)F)CC2)ccc1O` [Example 23], for which the change in vivo at 300 µg/mL was 77.9%.

For `COc1cc(CC(=O)N[C@H]2CC[C@H](C=C(C)C)CC2)ccc1O` [Example 24], the change in vivo at 300 µg/mL was 72.4%.

On to `COc1cc(CC(=O)N[C@H]2CC[C@H](C=C3CCCC3)CC2)ccc1O` [Example 25], for which the change in vivo at 300 µg/mL was 98.3%.

With `CCCC[C@H]1CC[C@H](NC(=O)Cc2ccc(O)c(OC)c2)CC1` [Example 28], the change in vivo at 300 µg/mL is 87.1%.

As to `CCOC(=O)CC[C@H]1CC[C@H](NC(=O)Cc2ccc(O)c(OC)c2)CC1` [Example 29], the change in vivo at 300 µg/mL came to 45.8%.

As for `CCCCC[C@H]1CC[C@H](NC(=O)Cc2ccc(O)c(OC)c2)CC1` [Example 30], the change in vivo at 300 µg/mL was 71.3%.

Take `CCC[C@H]1CC[C@H](NC(=O)Cc2ccc(O)c(OC)c2)CC1` [Example 31]: the change in vivo at 300 µg/mL came to 54.3%.

In the case of `COc1cc(CC(=O)N[C@H]2CC[C@H](CCC3CC3)CC2)ccc1O` [Example 32], the change in vivo at 300 µg/mL amounted to 85.5%.

For `COc1cc(CC(=O)N[C@H]2CC[C@H](CC(C)C)CC2)ccc1O` [Example 33], the change in vivo at 300 µg/mL was 73.3%.

As to `COc1cc(CC(=O)N[C@H]2CC[C@H](CC3CCCC3)CC2)ccc1O` [Example 34], the change in vivo at 300 µg/mL came out at 97.8%.

Consider `CCCCO[C@H]1CC[C@H](NC(=O)Cc2ccc(O)c(OC)c2)CC1` [Example 35, N-(trans-4-butoxycyclohexyl)-2-(4-hydroxy-3-methoxyphenyl)acetamide], for which the change in vivo at 300 µg/mL was determined as 42.8%.

For the compound `COc1cc(CC(=O)N[C@H]2CC[C@H](OCCC(C)C)CC2)ccc1O` [Example 37], the change in vivo at 300 µg/mL stood at 49.9%.

For the compound `COc1cc(CC(=O)N[C@H]2CC[C@H](OCCCC(F)(F)F)CC2)ccc1O` [Example 38], the change in vivo at 300 µg/mL was found to be 57.6%.

As for `CCCCOC[C@H]1CC[C@H](NC(=O)Cc2ccc(O)c(OC)c2)CC1` [Example 39], the change in vivo at 300 µg/mL turned out to be 39.6%.

As to `COc1cc(CC(=O)N[C@H]2CC[C@H](OC(=O)c3ccc(C)cc3)CC2)ccc1O` [Example 40, 2-(4-hydroxy-3-methoxyphenyl)-N-[trans-4-(4-methylphenylcarbonyloxy)cyclohexyl]acetamide], the change in vivo at 300 µg/mL was 48.3%.

For `COc1cc(CC(=O)N[C@H]2CC[C@@H](CC=C(C)C)CC2)ccc1O` [Example 47, 2-(4-hydroxy-3-methoxyphenyl)-N-[cis-4-(3-methyl-2-butenyl)cyclohexyl]acetamide], the change in vivo at 300 µg/mL was determined as 69%.

With `COc1cc(CC(=O)N[C@H]2CC[C@@H](CCC(C)C)CC2)ccc1O` [Example 48, 2-(4-hydroxy-3-methoxyphenyl)-N-[cis-4-(3-methylbutyl)cyclohexyl]acetamide], the change in vivo at 300 µg/mL was found to be 79.6%.

For the compound `CC/C=C\[C@H]1CC[C@@H](NC(=O)Cc2ccc(O)c(OC)c2)CC1` [Example 49, N-{cis-4-[(Z)-1-butenyl]cyclohexyl}-2-(4-hydroxy-3-methoxyphenyl)acetamide], the change in vivo at 300 µg/mL worked out at 97%.

On to `C/C=C\[C@H]1CC[C@@H](NC(=O)Cc2ccc(O)c(OC)c2)CC1` [Example 50], for which the change in vivo at 300 µg/mL was 48.2%.

With `COc1cc(CC(=O)N[C@H]2CC[C@@H](/C=C\CC(C)C)CC2)ccc1O` [Example 51], the change in vivo at 300 µg/mL was 96.4%.

On to `CC/C=C/[C@H]1CC[C@H](NC(=O)Cc2ccc(O)c(OC)c2)CC1` [Example 52, N-{trans-4-[(E)-1-butenyl]cyclohexyl}-2-(4-hydroxy-3-methoxyphenyl)acetamide], for which the change in vivo at 300 µg/mL was determined as 91.5%.

`C/C=C/[C@H]1CC[C@H](NC(=O)Cc2ccc(O)c(OC)c2)CC1` [Example 53]: the change in vivo at 300 µg/mL came out at 47.1%.

For `CCC/C=C/[C@H]1CC[C@H](NC(=O)Cc2ccc(O)c(OC)c2)CC1` [Example 54], the change in vivo at 300 µg/mL was 82.5%.

For `COc1cc(CC(=O)N[C@H]2CC[C@H](/C=C/C3CC3)CC2)ccc1O` [Example 55], the change in vivo at 300 µg/mL amounted to 55.4%.

`COc1cc(CC(=O)N[C@H]2CC[C@H](/C=C/CC(C)C)CC2)ccc1O` [Example 56]: the change in vivo at 300 µg/mL was found to be 70.2%.

Regarding `COc1cc(CC(=O)N[C@H]2CC[C@H](/C=C/C3CCC3)CC2)ccc1O` [Example 57], the change in vivo at 300 µg/mL was 54.2%.

Regarding `COc1cc(CC(=O)N[C@H]2CC[C@H](/C=C/CC3CC3)CC2)ccc1O` [Example 58], the change in vivo at 300 µg/mL was found to be 48.6%.

As to `COc1cc(CC(=O)N[C@H]2CC[C@H](CCC3CCC3)CC2)ccc1O` [Example 59, N-[trans-4-(2-cyclobutylethyl)cyclohexyl]-2-(4-hydroxy-3-methoxyphenyl)acetamide], the change in vivo at 300 µg/mL turned out to be 74.7%.

On to `CCC/C=C/[C@H]1CC[C@@H](NC(=O)Cc2ccc(O)c(OC)c2)CC1` [Example 60, 2-(4-hydroxy-3-methoxyphenyl)-N-{cis-4-[(E)-1-pentenyl]cyclohexyl}acetamide], for which the change in vivo at 300 µg/mL came out at 91.4%.

With `C/C=C/[C@H]1CC[C@@H](NC(=O)Cc2ccc(O)c(OC)c2)CC1` [Example 61], the change in vivo at 300 µg/mL is 49.4%.

`CC/C=C/[C@H]1CC[C@@H](NC(=O)Cc2ccc(O)c(OC)c2)CC1` [Example 62]: the change in vivo at 300 µg/mL was 86.3%.

Take `COc1cc(CC(=O)N[C@H]2CC[C@@H](/C=C/C(C)C)CC2)ccc1O` [Example 63]: the change in vivo at 300 µg/mL turned out to be 96.4%.

For `COc1cc(CC(=O)N[C@H]2CC[C@@H](/C=C/C3CC3)CC2)ccc1O` [Example 64], the change in vivo at 300 µg/mL was 71.1%.

For `COc1cc(CC(=O)N[C@H]2CC[C@@H](/C=C/CC(C)C)CC2)ccc1O` [Example 65], the change in vivo at 300 µg/mL was found to be 100%.

On to `COc1cc(CC(=O)N[C@H]2CC[C@@H](/C=C/C3CCC3)CC2)ccc1O` [Example 66], for which the change in vivo at 300 µg/mL was found to be 88%.

The experiment is the same for the next values; noted with them: Rattus norvegicus; 50 μl of 0.03% (W/V) solution i.pl. into right hind-paw; 4 hours after administration; cut-off 25 seconds; read-out: % MPE (percent maximum possible effect, withdrawal latency).
For `COc1cc(CC(=O)N[C@H]2CC[C@H](OC(=O)Cc3ccccc3)CC2)ccc1O` [Example 41, N-[trans-4-(benzylcarbonyloxy)cyclohexyl]-2-(4-hydroxy-3-methoxyphenyl)acetamide], the change in vivo at 300 µg/mL is 45.8%.
